# Data as given in PMC6329626 (British Journal of Pharmacology, 2018).
# Read-outs that look alike come from different tables or passages of the source.
# B1: recombinant human CYP3A7 (Homo sapiens) (protein)
# chain: MDLIPNLAVETWLLLAVSLILLYLYGTRTHGLFKKLGIPGPTPLPFLGNALSFRKGYWTFDMECYKKYRKVWGIYDCQQPMLAITDPDMIKTVLVKECYSVFTNRRPFGPVGFMKNAISIAEDEEWKRIRSLLSPTFTSGKLKEMVPIIAQYGDVLVRNLRREAETGKPVTLKHVFGAYSMDVITSTSFGVSIDSLNNPQDPFVENTKKLLRFNPLDPFVLSIKVFPFLTPILEALNITVFPRKVISFLTKSVKQIKEGRLKETQKHRVDFLQLMIDSQNSKDSETHKALSDLELMAQSIIFIFAGYETTSSVLSFIIYELATHPDVQQKVQKEIDTVLPNKAPPTYDTVLQLEYLDMVVNETLRLFPVAMRLERVCKKDVEINGMFIPKGVVVMIPSYVLHHDPKYWTEPEKFLPERFSKKNKDNIDPYIYTPFGSGPRNCIGMRFALVNMKLALVRVLQNFSFKPCKETQIPLKLRFGGLLLTEKPIVLKAESRDETVSGA
# How the values were obtained:
# pooled HLM [1] = assay: Enzyme kinetics of 5′-HM-FLX formation from flucloxacillin by pooled HLM; format: in vitro ADME, human; conditions: 0.5 mg·mL^−1 pooled HLM, 10 min, Michaelis–Menten fit
# HLM from 16 donors = format: in vitro ADME, human; conditions: for Pearson's r, FLX hydroxylation vs phenacetin O-deethylation: CYP1A2; for Pearson's r, FLX hydroxylation vs coumarin 7-hydroxylation: CYP2A6; for Pearson's r, FLX hydroxylation vs diclofenac 4′-hydroxylation: CYP2C9
# [2] = read-out: Average Cmax in patients; patients taking 1000 mg orally; cited from earlier work
# biliary epithelial cells = conditions: ref Lakehal et al., 2001; cited from earlier work
# recombinant human CYP3A4 = recombinant human CYP3A4 (Homo sapiens, UniProt P08684); assay: Enzyme kinetics of flucloxacillin hydroxylation by CYP3A4 Supersomes; conditions: 100 nM CYP3A4 Supersomes, 10 min
# Chain of recombinant human CYP3A4 (P08684 whole entry): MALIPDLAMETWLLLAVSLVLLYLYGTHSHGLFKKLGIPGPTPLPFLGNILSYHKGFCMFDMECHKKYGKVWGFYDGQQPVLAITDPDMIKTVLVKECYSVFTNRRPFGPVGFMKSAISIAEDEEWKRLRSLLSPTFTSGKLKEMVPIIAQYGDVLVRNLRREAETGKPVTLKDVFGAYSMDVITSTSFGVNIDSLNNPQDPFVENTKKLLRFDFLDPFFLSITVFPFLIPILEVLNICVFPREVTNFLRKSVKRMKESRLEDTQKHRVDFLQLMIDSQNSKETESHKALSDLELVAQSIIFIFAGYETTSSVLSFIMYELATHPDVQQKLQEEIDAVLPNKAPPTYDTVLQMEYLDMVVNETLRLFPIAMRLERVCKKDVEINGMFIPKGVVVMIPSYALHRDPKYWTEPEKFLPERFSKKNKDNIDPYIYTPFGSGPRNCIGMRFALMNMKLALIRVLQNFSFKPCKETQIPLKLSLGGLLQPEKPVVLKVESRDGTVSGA
# recombinant CYP3A7 = recombinant CYP3A7 (Homo sapiens, UniProt P24462); assay: Inhibition by sulfaphenazole of CYP3A7 Supersomes; format: biochemical; conditions: testosterone 50 μM
# [3] = target: CYP3A4 (testosterone 6β-hydroxylation) in HLM (Homo sapiens, UniProt P08684); assay: Inhibition by sulfaphenazole of testosterone hydroxylation in HLM; format: biochemical
# Chain of CYP3A4 (testosterone 6β-hydroxylation) in HLM (P08684 whole entry): as above
# HLM [4] = conditions: 25 μM sulfaphenazole; ref Lakehal et al., 2001; cited from earlier work
# HLM [5] = conditions: ref Towles et al., 2016; cited from earlier work
# [6] = test system: CYP3A (flucloxacillin 5′-hydroxylation); assay: Inhibition of 5′-HM-FLX formation by pooled HLM by CYP-specific inhibitors; format: biochemical, human; conditions: human, pooled human liver microsomes, probe flucloxacillin (formation of 5′-HM-FLX), 10 and 100 μM
# pooled HLM [7] = assay: as above; format: biochemical, human; conditions: 10 μM inhibitor; pooled HLM
# [8] = substrate: Cc1onc(-c2c(F)cccc2Cl)c1C(=O)N[C@@H]1C(=O)N2[C@@H]1SC(C)(C)[C@@H]2C(=O)O; assay: cells, lysate or membranes named; format: in vitro ADME, human; conditions: other: 100 nM CYP3A7 Supersomes, 10 min; pH 7.4; 37.0 °C
molecule,measurement,setting,value
Cc1onc(-c2c(F)cccc2Cl)c1C(=O)N[C@@H]1C(=O)N2[C@@H]1SC(C)(C)[C@@H]2C(=O)O [flucloxacillin],K M of 5′-HM-FLX formation,pooled HLM [1],284 ± 38 µM
same,Vmax of 5′-HM-FLX formation,pooled HLM [1],30 ± 2 pmol·min^−1·mg^−1 protein
same,"Pearson's r, FLX hydroxylation vs phenacetin O-deethylation",HLM from 16 donors; 10 μM FLX,0.04
same,"Pearson's r, FLX hydroxylation vs phenacetin O-deethylation",HLM from 16 donors; 100 μM FLX,0.10
same,"Pearson's r, FLX hydroxylation vs coumarin 7-hydroxylation",HLM from 16 donors; 10 μM FLX,0.45
same,"Pearson's r, FLX hydroxylation vs coumarin 7-hydroxylation",HLM from 16 donors; 100 μM FLX,0.45
same,"Pearson's r, FLX hydroxylation vs amodiaquine N-deethylation","HLM from 16 donors; CYP2C8, 10 μM FLX",0.50
same,"Pearson's r, FLX hydroxylation vs diclofenac 4′-hydroxylation",HLM from 16 donors; 10 μM FLX,0.78
same,"Pearson's r, FLX hydroxylation vs diclofenac 4′-hydroxylation",HLM from 16 donors; 100 μM FLX,0.58
same,"Pearson's r, FLX hydroxylation vs mephenytoin 4′-hydroxylation","HLM from 16 donors; CYP2C19, 10 μM FLX",0.45
same,"Pearson's r, FLX hydroxylation vs midazolam 1′-hydroxylation","HLM from 16 donors; CYP3A4, 10 μM FLX",0.58
same,"Pearson's r, FLX hydroxylation vs testosterone 6β-hydroxylation","HLM from 16 donors; CYP3A4, 10 μM FLX",0.69
same,Cmax,[2],100 µM
same,Cytotoxicity to isolated biliary epithelial cells,biliary epithelial cells,without effect
same,K M of 5′-HM-FLX formation,recombinant human CYP3A4,124 ± 15 µM
Nc1ccc(S(=O)(=O)Nc2ccnn2-c2ccccc2)cc1 [sulfaphenazole],Inhibition of 6β-hydroxylation of testosterone,recombinant CYP3A7,not affected
same,Inhibition of testosterone hydroxylation,[3],but not testosterone hydroxylation
same,Inhibition of HLM-catalysed hydroxylation of flucloxacillin,HLM [4],no inhibition
same,Inhibition of bioactivation of hydroxylapatinib by HLM,HLM [5],significantly inhibited
CC(=O)N1CCN(c2ccc(OCC3COC(Cn4ccnc4)(c4ccc(Cl)cc4Cl)O3)cc2)CC1 (stereo not shown) [ketoconazole],inhibition at 1 μM,[6],50%
COCCCC/C(=N\OCCN)c1ccc(C(F)(F)F)cc1 [fluvoxamine],Inhibition of 5′-HM-FLX formation,pooled HLM [7],did not show significant inhibition
B1,kcat,[8],193 ± 7 pmol·min^−1·nmol^−1 P450
